Converted amounts (≈) assume the structure as drawn.
Tests used:
Experiment in all cases: Anti-microbial activity test in vitro (agar dilution MIC)
[1] = tested on: VRE C6488; type: cell-based, Enterococcus faecium; conditions: VRE C6488; Agar Dilution method, Mueller Hinton Agar, 18 hours at 37° C.
Procedure, shortened: (§1)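 Mueller Hinton agar, 2-fold dilution series, 18 h/37 °C incubation; visual MIC (μg/ml).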

[2] = tested on: VRE C6487; type: cell-based, Enterococcus faecium; conditions: VRE C6487; Agar Dilution method, Mueller Hinton Agar, 18 hours at 37° C.
Procedure, shortened: as §1

[3] = tested on: E. faecalis C6291; type: cell-based; conditions: E. faecalis C6291; Agar Dilution method, Mueller Hinton Agar, 18 hours at 37° C.
Procedure, shortened: as §1

[4] = tested on: S. epidermidis ATCC12228; type: cell-based; conditions: S. epidermidis ATCC12228; Agar Dilution method, Mueller Hinton Agar, 18 hours at 37° C.
Procedure, shortened: as §1

[5] = tested on: E. faecium C2252; type: cell-based; conditions: E. faecium C2252; Agar Dilution method, Mueller Hinton Agar, 18 hours at 37° C.
Procedure, shortened: as §1

[6] = tested on: E. faecalis ATCC29212; type: cell-based; conditions: E. faecalis ATCC29212; Agar Dilution method, Mueller Hinton Agar, 18 hours at 37° C.
Procedure, shortened: as §1

[7] = tested on: S. pyogenes ATCC8668; type: cell-based; conditions: S. pyogenes ATCC8668; Agar Dilution method, Mueller Hinton Agar, 18 hours at 37° C.
Procedure, shortened: as §1

[8] = tested on: E. faecalis C6288; type: cell-based; conditions: E. faecalis C6288; Agar Dilution method, Mueller Hinton Agar, 18 hours at 37° C.
Procedure, shortened: as §1

[9] = tested on: E. faecium C6301; type: cell-based; conditions: E. faecium C6301; Agar Dilution method, Mueller Hinton Agar, 18 hours at 37° C.
Procedure, shortened: as §1

[10] = tested on: S. aureus ATCC 29213; type: cell-based; conditions: Agar Dilution method, Mueller Hinton Agar, 18 hours at 37° C.
Procedure, shortened: as §1

[11] = tested on: S. pyogenes C6003; type: cell-based; conditions: S. pyogenes C6003; Agar Dilution method, Mueller Hinton Agar, 18 hours at 37° C.
Procedure, shortened: as §1

[12] = tested on: S. epidermidis C2230; type: cell-based; conditions: S. epidermidis C2230; Agar Dilution method, Mueller Hinton Agar, 18 hours at 37° C.
Procedure, shortened: as §1

[13] = tested on: S. epidermidis C2235; type: cell-based; conditions: S. epidermidis C2235; Agar Dilution method, Mueller Hinton Agar, 18 hours at 37° C.
Procedure, shortened: as §1

[14] = tested on: S. pyogenes C6012; type: cell-based; conditions: S. pyogenes C6012; Agar Dilution method, Mueller Hinton Agar, 18 hours at 37° C.
Procedure, shortened: as §1

[15] = tested on: MSSA C2214; type: cell-based, Staphylococcus aureus; conditions: MSSA C2214; Agar Dilution method, Mueller Hinton Agar, 18 hours at 37° C.
Procedure, shortened: as §1

[16] = tested on: MRSA C6068; type: cell-based, Staphylococcus aureus; conditions: MRSA C6068; Agar Dilution method, Mueller Hinton Agar, 18 hours at 37° C.
Procedure, shortened: as §1

[17] = tested on: MRSA C5100; type: cell-based, Staphylococcus aureus; conditions: MRSA C5100; Agar Dilution method, Mueller Hinton Agar, 18 hours at 37° C.
Procedure, shortened: as §1

[18] = tested on: CRSA C1062; type: cell-based, Staphylococcus aureus; conditions: CRSA C1062; Agar Dilution method, Mueller Hinton Agar, 18 hours at 37° C.
Procedure, shortened: as §1

[19] = tested on: MSSA C7142; type: cell-based, Staphylococcus aureus; conditions: MSSA C7142; Agar Dilution method, Mueller Hinton Agar, 18 hours at 37° C.
Procedure, shortened: as §1

[20] = tested on: MRSA C2207; type: cell-based, Staphylococcus aureus; conditions: MRSA C2207; Agar Dilution method, Mueller Hinton Agar, 18 hours at 37° C.
Procedure, shortened: as §1

[21] = tested on: CRSA C6043; type: cell-based, Staphylococcus aureus; conditions: CRSA C6043; Agar Dilution method, Mueller Hinton Agar, 18 hours at 37° C.
Procedure, shortened: as §1

Compound	Minimum inhibition concentration (MIC) [1]	Minimum inhibition concentration (MIC) [2]	Minimum inhibition concentration (MIC) [3]	Minimum inhibition concentration (MIC) [4]	Minimum inhibition concentration (MIC) [5]	Minimum inhibition concentration (MIC) [6]	Minimum inhibition concentration (MIC) [7]	Minimum inhibition concentration (MIC) [8]	Minimum inhibition concentration (MIC) [9]	Minimum inhibition concentration (MIC) [10]	Minimum inhibition concentration (MIC) [11]	Minimum inhibition concentration (MIC) [12]	Minimum inhibition concentration (MIC) [13]	Minimum inhibition concentration (MIC) [14]	Minimum inhibition concentration (MIC) [15]	Minimum inhibition concentration (MIC) [16]	Minimum inhibition concentration (MIC) [17]	Minimum inhibition concentration (MIC) [18]	Minimum inhibition concentration (MIC) [19]	Minimum inhibition concentration (MIC) [20]	further results
CC(=O)NC[C@H]1CN(c2ccc(N3CCC(=CC(C)=NO)CC3)c(F)c2)C(=O)O1 [Compound 20, N-[[(5S)-3-[3-fluoro-4-(4-(2-hydroxyiminopropylidene)-piperidinyl)phenyl]-2-oxo-5-oxazolidinyl]methyl]acetamide]	4 µg/mL (≈ 9.89 µM)	4 µg/mL (≈ 9.89 µM)	4 µg/mL (≈ 9.89 µM)	1 µg/mL (≈ 2.47 µM)	4 µg/mL (≈ 9.89 µM)	8 µg/mL (≈ 19.8 µM)	1 µg/mL (≈ 2.47 µM)	4 µg/mL (≈ 9.89 µM)	4 µg/mL (≈ 9.89 µM)	8 µg/mL (≈ 19.8 µM)	4 µg/mL (≈ 9.89 µM)	4 µg/mL (≈ 9.89 µM)	4 µg/mL (≈ 9.89 µM)	1 µg/mL (≈ 2.47 µM)	8 µg/mL (≈ 19.8 µM)	4 µg/mL (≈ 9.89 µM)	8 µg/mL (≈ 19.8 µM)	8 µg/mL (≈ 19.8 µM)	16 µg/mL (≈ 39.6 µM)	8 µg/mL (≈ 19.8 µM)	Minimum inhibition concentration (MIC) [21]: 8 µg/mL (≈ 19.8 µM)
CC(=O)NC[C@H]1CN(c2ccc(N3CCC(=C(C)C#N)CC3)c(F)c2)C(=O)O1 [Compound 16, N-[[(5S)-3-[3-fluoro-4-(4-(1-cyanoethylidene)piperidinyl)-phenyl]-2-oxo-5-oxazolidinyl]methyl]acetamide]	1 µg/mL (≈ 2.59 µM)	0.5 µg/mL (≈ 1.29 µM)	2 µg/mL (≈ 5.18 µM)	0.5 µg/mL (≈ 1.29 µM)	2 µg/mL (≈ 5.18 µM)	2 µg/mL (≈ 5.18 µM)	2 µg/mL (≈ 5.18 µM)	2 µg/mL (≈ 5.18 µM)	2 µg/mL (≈ 5.18 µM)	2 µg/mL (≈ 5.18 µM)	0.5 µg/mL (≈ 1.29 µM)	2 µg/mL (≈ 5.18 µM)	2 µg/mL (≈ 5.18 µM)	2 µg/mL (≈ 5.18 µM)	2 µg/mL (≈ 5.18 µM)	2 µg/mL (≈ 5.18 µM)	2 µg/mL (≈ 5.18 µM)	2 µg/mL (≈ 5.18 µM)	2 µg/mL (≈ 5.18 µM)	2 µg/mL (≈ 5.18 µM)	Minimum inhibition concentration (MIC) [21]: 2 µg/mL (≈ 5.18 µM)
CC(=S)NC[C@H]1CN(c2ccc(N3CCC(=CC#N)CC3)c(F)c2)C(=O)O1 [Compound 26, N-[[(5S)-3-[3-fluoro-4-(4-(cyanomethylidene)piperidinyl)-phenyl]-2-oxo-5-oxazolidinyl]methyl]thioacetamide]	0.5 µg/mL (≈ 1.29 µM)	0.5 µg/mL (≈ 1.29 µM)	1 µg/mL (≈ 2.57 µM)	0.5 µg/mL (≈ 1.29 µM)	1 µg/mL (≈ 2.57 µM)	2 µg/mL (≈ 5.15 µM)	0.5 µg/mL (≈ 1.29 µM)	1 µg/mL (≈ 2.57 µM)	1 µg/mL (≈ 2.57 µM)	2 µg/mL (≈ 5.15 µM)	0.25 µg/mL (≈ 0.644 µM)	1 µg/mL (≈ 2.57 µM)	0.5 µg/mL (≈ 1.29 µM)	0.25 µg/mL (≈ 0.644 µM)	2 µg/mL (≈ 5.15 µM)	2 µg/mL (≈ 5.15 µM)	1 µg/mL (≈ 2.57 µM)	2 µg/mL (≈ 5.15 µM)	2 µg/mL (≈ 5.15 µM)	2 µg/mL (≈ 5.15 µM)	Minimum inhibition concentration (MIC) [21]: 2 µg/mL (≈ 5.15 µM)
CC(=O)NC[C@H]1CN(c2ccc(N3CCC(=CC(=O)O)CC3)c(F)c2)C(=O)O1 [Compound 14, N-[[(5S)-3-[3-fluoro-4-(4-carboxymethylidenepiperidinyl)-phenyl]-2-oxo-5-oxazolidinyl]methyl]acetamide]	8 µg/mL (≈ 20.4 µM)	1 µg/mL (≈ 2.55 µM)	8 µg/mL (≈ 20.4 µM)	1 µg/mL (≈ 2.55 µM)	8 µg/mL (≈ 20.4 µM)	8 µg/mL (≈ 20.4 µM)	4 µg/mL (≈ 10.2 µM)	4 µg/mL (≈ 10.2 µM)	4 µg/mL (≈ 10.2 µM)	8 µg/mL (≈ 20.4 µM)	2 µg/mL (≈ 5.11 µM)	4 µg/mL (≈ 10.2 µM)	1 µg/mL (≈ 2.55 µM)	8 µg/mL (≈ 20.4 µM)	8 µg/mL (≈ 20.4 µM)	4 µg/mL (≈ 10.2 µM)	4 µg/mL (≈ 10.2 µM)	16 µg/mL (≈ 40.9 µM)	8 µg/mL (≈ 20.4 µM)	8 µg/mL (≈ 20.4 µM)	Minimum inhibition concentration (MIC) [21]: 8 µg/mL (≈ 20.4 µM)
